Measurements: patent publication US9539261B2, “Methods and compositions for stimulating neurogenesis and inhibiting neuronal degeneration” (Neuronascent, Inc., priority 2005, dated 2017)

Experiments:
[1] = system: mature neurons; test: inhibition of beta amyloid peptide toxicity in mature neurons; type: cell-based, human
Description: In measuring the ability of inhibiting apoptosis, mature neurons (3-4 weeks following initiation of differentiation) were treated with staurosporine to induce apoptosis. A low concentration of staurosporine (10-100 nM) or beta amyloid 1-42 peptide at 1-10 μM or peptide beta amyloid 25-35 at 10-75 μM concentration was used to stimulate apoptosis. At the same time as treating with staurosporine, the neurons were treated with vehicle or one of the test agents. […] Each compound's inhibitory ability was compared with vehicle and staurosporine.
Necrosis of the mature neurons was initiated using beta amyloid 1-42 peptide at 1-10 μM or peptide beta amyloid 25-35 at 10-75 μM concentration. This synthetic peptide was of the same length naturally found in AD brain. Because lactate dehydrogenase (LDH) is released from cells when the plasma membrane is impaired, the cell loss was quantified by the amount of LDH released into the media following a 24-48 hr treatment. The ability of neurogenic agents to reduce the LDH release induced by beta amyloid, versus vehicle control was used as the measurement of inhibition of neuron degeneration.

[2] = system: human neuronal progenitors cells; test: in vitro neurogenesis test (MAP-2 staining, neuron number); type: cell-based; details: MAP-2 staining on day 11; human neuronal progenitors in differentiation media
Description: The in vitro neurogenesis test was performed using human neuronal progenitors cells. By way of background, the human neuronal progenitor cells can be cultured in media and have the potential to produce mature functional neurons. The neurogenesis factor in the culture media can promote the number of the progenitor cells which differentiate into neurons. Indeed, it is a widely accepted in vitro model to test a chemical's neurogenetic property.
Cells were obtained as human neuronal progenitors from a commercial source and were grown for up to three passages or at any time differentiated to potentially produce mature functional neurons in culture. Following two passages to expand the cells, progenitors were seeded into multi-well microplates and the media were changed to differentiation media (minus serum and mitogen). Within 2 hrs of this media change, a vehicle, positive control or test compound were added to each well. Also, they were added with every further media change (50% volume change every other day). Control wells contained cells and vehicle (0.2% DMSO in DMEM/F12). […]
The cells were stained using MAP-2, a neuronal marker, on day 11. Then, each test compound was assessed for the ability to promote an increase in neuron number and compared with the positive control, leukemia inhibitory factor (LIF).

[3] = system: mature neurons; test: LDH assay of neuron degeneration due to hydrogen peroxide toxicity; type: cell-based, human; details: hydrogen peroxide for 8 hrs, vehicle control = 0% inhibition, n = 5 wells

Molecule	% Inhibition of beta amyloid peptide toxicity [1] [%]	increase in the neuron numbers compared with the vehicle control, % of Control [2]	% Inhibition of neuron degeneration due to hydrogen peroxide toxicity [3] [%]
4-Benzo-8-aza-bicyclo[3.2.1]oct-3-yl)-3-(2-chloro-phenyl)-thiourea	68		
COCCN(Cc1cc2ccc(C)c(C)c2nc1Cl)C(=O)Nc1ccccc1OC [1-(2-Chloro-7,8-dimethyl-quinolin-3-ylmethyl)-1-(2-methoxy-ethyl)-3-(2-methoxy-phenyl)-urea]		132 % of Control	
COc1ccccc1NC(=S)N1CCCN(c2nc3cc(C)cc(C)c3cc2C#N)CC1 [4-(3-Cyano-5,7-dimethyl-quinolin-2-yl)-[1,4]diazepane-1-carbothioic acid (2-methoxy-phenyl)-amide]	84	110 % of Control	50
